Measurements published in patent publication US20250269036A1, “METHODS FOR ENHANCEMENT OF ENGINEERED CELL THERAPIES IN CANCER TREATMENT” (PURDUE RESEARCH FOUNDATION, priority 2021, published 2025).
Entries after “also recorded” stand apart in the source; their conditions may differ.

Tests used:
healthy mice = test: Plasma cytokine levels in healthy mice after tail vein injection; format: in vivo; conditions: healthy mice, tail vein, 10 nmol, 1 hour or 1.5 hours after treatment
Method: (FIGS. 20A-C) Measurement of plasma IL-6 (FIG. 20A), IFNα (FIG. 20B) and TNFα (FIG. 20C) (n=3). (FIGS. 20D-F). The effect of drug concentration on plasma levels of IL-6 (FIG. 20D), IFNα (FIG. 20E), and TNFα (FIG. 20F) was determined at 1.5h, 1h, or 1h after treatment, respectively (n=2) (FIG. 20G).
(FIGS. 36C and 36D). The effect of drug on plasma levels of IL-6 (FIG. 36C) and TNFα (FIG. 36D) was determined at 1 hour or 1.5 hours after treatment.

[1] = system: FRβ-expressing macrophages; test: In vivo folate imaging of organs with OTL38; design: species or system C57BL/6 mice
Method: (§1) To evaluate if anti-inflammatory lung macrophages in these mice can be specifically targeted with folate-linked drugs, 10 days after the instillation, 10 nmol (for in vivo imaging) or 100 nmol (for in vivo labeling) of a folate-linked, near infrared fluorescent dye (OTL38) with or without 200-fold excess of FA-glucosamine (a competitor of OTL38) was injected into the tail veins of BM-treated mice and the dye uptake in the major organs was evaluated.
Finally, for the in vivo folate imaging studies, major organs (heart, lung, spleen, liver, small intestine, large intestine, and kidney) were resected and imaged using an AMI live imager (Spectral Instruments Imaging, Tucson, AZ). For in vivo folate receptor labeling studies, lungs of the mice were harvested immediately following euthanasia, digested with a lung dissociation kit (Miltenyi Biotec, Bergisch Gladbach, DE; #130-098-427) as described by gentleMACS Octo Dissociator with Heathers (Miltenyi Biotec, Bergisch Gladbach, DE; #130-096-427) as described by manual and filtered through a 70 μm cell strainer (Miltenyi Biotec, Bergisch Gladbach, DE; #130-098-462). Cells collected in the filtrate were depleted of erythrocytes by […] lysis, washed 2x in cold PBS and labeled for 30 min on ice with antibodies to desired macrophage markers (FITC-CD11b, Biolegend, San Diego, CA; #101205; FE-F4/80, Biolegend, San Diego, CA; #123109). Labeled macrophages were then washed twice in PBS, stained with 7AAD (viability stain) for 15 min and analyzed by flow cytometry using BD Accuri C6 Software (BD Biosciences, San Jose, CA).
FIGS. 7C and 7D show FRβ IHC staining of human IPF lung tissue (FIG. 7C) and healthy human lung tissue (FIG. 7D). […] After 2 hours, mice were sacrificed prior to analysis. […] For in vivo folate receptor labeling studies, lungs of the mice were harvested immediately following euthanasia, digested and then labeled with antibodies to desired macrophages markers (FITC-CD11b, PE-F4/80) and 7AAD (live/dead staining) and analyzed by flow cytometry.

[2] = system: FRβ positive macrophages in the inflamed lung; test: In vivo folate receptor labeling of lung macrophages, flow cytometry; design: species or system C57BL/6 mice
Method: as §1
Finally, for the in vivo folate imaging studies, major organs (heart, lung, spleen, liver, small intestine, large intestine, and kidney) were resected and imaged using an AMI live imager (Spectral Instruments Imaging, Tucson, AZ). […] Labeled macrophages were then washed twice in PBS, stained with 7AAD (viability stain) for 15 min and analyzed by flow cytometry using BD Accuri C6 Software (BD Biosciences, San Jose, CA).
FIGS. 7C and 7D show FRβ IHC staining of human IPF lung tissue (FIG. 7C) and healthy human lung tissue (FIG. 7D). […] For in vivo folate receptor labeling studies, lungs of the mice were harvested immediately following euthanasia, digested and then labeled with antibodies to desired macrophages markers (FITC-CD11b, PE-F4/80) and 7AAD (live/dead staining) and analyzed by flow cytometry. […]

[3] = system: IL-4, IL-6 plus IL-13 stimulated THP-1 cells (M2-like macrophages); test: Reprogramming of M2-polarized THP-1 macrophages, marker mRNA by qPCR; format: cell-based, human; conditions: 2 hours; for CCL18 relative expression / CD206 relative expression / IL-1β relative expression: different nM concentrations, qPCR
Method: THP-1 cells were initially selected as a model system because this human monocytic cell line is known to acquire an M2-like phenotype and produce significant quantities of anti-inflammatory cytokines upon stimulation with IL-4, IL-6 plus IL-13.
THP-1 cells were seeded into 96-well plates at a density of 60,000 cells/well. Cells were differentiated into unpolarized macrophages by 48 hours incubation with 200 nM PMA followed by 24 hours incubation in fresh RPMI medium. […] Cultures were maintained at 37° C. in a humidified 5% CO2 incubator.
Total RNA was isolated from 1×10^5-2×10^5 macrophages using a Quick-RNATM MicroPrep kit (Zymo Research, Irvine, CA) according to the manufacturer-recommended protocol. […] IL-6, CXCL10, IFNα, IFN-γ and CD86 were used as markers for an M1 phenotype, while CCL18, CD206, CD163 and Arg1 were employed as markers for the M2 phenotype. IL-1β, PDGFβ, MMP9 and TIMP 3 were measured as indicators of an anti-inflammatory phenotype. IRAK-4 was used as an indicator of TLR7 stimulation. To control for specificity of the amplification products, a melting curve analysis was performed. […] Each sample was analyzed independently in triplicate for each marker.
Primarily, human monocytic (THP-1) cells were induced to the M2-like phenotype using the methods and materials previously described. In particular, THP-1 cells were seeded into 96-well plates at a density of 60,000 cells/well. Cells were differentiated into unpolarized macrophages by 48h incubation with 200 nM PMA followed by 24 hours incubation in fresh RPMI medium. The resulting macrophages were polarized to an M2-like phenotype by incubation with 20 ng/ml IL-4, 20 ng/ml IL-13, and 5 ng/mL IL-6 for 48h. Cultures were maintained at 37° C. in a humidified 5% CO2 incubator.
In addition to the nonconjugated TLR7 agonist, conjugated compounds of the present disclosure were likewise evaluated. […] The cells were subsequently harvested for gene analysis by qPCR and the relative expression of CCL18 (FIG. 14A), CD206 (FIG. 14B), and IL-1β (FIG. 14C) analyzed.

[4] = system: M2-induced THP-1 macrophages; test: Secreted CCL18 and IL-1β in THP-1 macrophage supernatants by ELISA; format: cell-based, human; conditions: ELISA, low concentration range (0.1-10 nM)
Method: FIGS. 6A-6D show graphical data representative of various marker levels measured from M2-induced THP-1 macrophages treated with different concentrations of drugs for 48 hours (FIGS. 6A and 6B) or for 2 hours, then displaced with fresh medium and cultured for the remaining 46 hours (FIGS. 6C and 6D). In both cases, cell supernatants were collected and secreted CCL18 protein and IL-1β was detected by ELISA.
CCL18 and IL-1β were quantified in induced THP-1 cell supernatants using a human DuoSet ELISA Development System (R&D Systems Europe, Abingdon, UK; #DY394-05) and an IL-1 beta Human ELISA Kit (Thermo Fisher Scientific, Waltham, MA; #BMS224-2) as described by manufactures. BALF samples were analyzed for mouse IFN-γ using ELISA MAX™ Deluxe (Biolegend, San Diego, CA; #430804).

Compound | CCL18 relative expression [3] | CD206 relative expression [3] | IL-1β relative expression [3] | secretion of CCL18 protein [4] | also measured
CCOCc1nc2c(N)nc3ccccc3c2n1CC(C)(C)O [Compound A, reference compound] |  |  |  |  | systemic cytokine release (plasma IL-6, TNFα) (healthy mice): stimulated systemic cytokine release
OTL38 |  |  |  |  | lung accumulation with competitor ([1]; BM-treated mice, simultaneous 200-fold excess folate-glucosamine): nearly quantitative blockade of lung accumulation; OTL38 fluorescence in organs of healthy mice ([1]; tail vein, 10 nmol, 2 hours): only observed in the kidneys; accumulation in lungs of BM-treated mice ([1]; tail vein, 10 nmol, day 10 post BM, 2 hours): in the lungs of BM-treated but not healthy mice; also recorded: pronounced accumulation in the fibrotic lungs; folate-dye retention in macrophage-like cells with competitor ([2]; 100 nmol plus 200-fold excess folate-glucosamine): blocked essentially all folate-dye retention; macrophage-like cells showing folate-targeted dye retention ([2]; fibrotic mice, 100 nmol, tail vein): about 22%
Nc1nc2ncc(CNc3ccc(C(=O)NC(CCC(=O)N[C@@H](CSSCCOC(=O)OCC4CCCN(CCNc5ccc(Cn6c(=O)[nH]c7c(N)nc(C(F)(F)F)cc76)cn5)C4)C(=O)O)C(=O)O)cc3)nc2c(=O)[nH]1 (stereo partly shown) [Compound 3B] | reduced | reduced | reduced | downregulated | 
Nc1nc2ncc(CNc3ccc(C(=O)N[C@@H](CCC(=O)NCCOCCOCCOCCOCC4CCCN(CCNc5ccc(Cn6c(=O)[nH]c7c(N)nc(C(F)(F)F)cc76)cn5)C4)C(=O)O)cc3)nc2c(=O)[nH]1 (stereo partly shown) [Compound 3D] | reduced | reduced | reduced | downregulated | effectiveness in reducing M2 markers relative to the other compounds ([3]; CCL18, CD206, IL-1β): most effective
Nc1nc(C(F)(F)F)cc2c1[nH]c(=O)n2Cc1ccc(NCCN2CCCC(CO)C2)nc1 (stereo not shown) [Compound 3A] |  |  |  | downregulated | 
